Experimental data as given in ChEMBL document CHEMBL3885881, “DrugMatrix”.

Species: Rattus norvegicus
Experiment: DrugMatrix - Regimen: Daily Repeat
Format: toxicity, organism-based, Sprague-Dawley
Parameters: regimen Daily Repeat, gender Male, age 6-8 weeks
Conditions: in vivo, po, route oral GAVAGE, […]; for ABSOLUTE BASOPHIL / ABSOLUTE EOSINOPHIL / ABSOLUTE LYMPHOCYTE / ABSOLUTE MONOCYTE / ABSOLUTE SEGMENTED NEUTROPHIL / BASOPHIL / EOSINOPHIL / ERYTHROCYTE COUNT / HEMATOCRIT / HEMOGLOBIN / LEUKOCYTE COUNT / LYMPHOCYTE / MEAN CORPUSCULAR HEMOGLOBIN / MEAN CORPUSCULAR HEMOGLOBIN CONCENTRATION / MEAN CORPUSCULAR VOLUME / MONOCYTE / NEUTROPHIL / NUCLEATED RED BLOOD CELLS / PLATELET COUNT: tissue Blood; for ALANINE AMINOTRANSFERASE / ALBUMIN / ALKALINE PHOSPHATASE / ASPARTATE AMINOTRANSFERASE / BLOOD UREA NITROGEN / CARBON DIOXIDE / CHLORIDE / CHOLESTEROL / CREATINE PHOSPHOKINASE / CREATININE / GLUCOSE / LACTATE DEHYDROGENASE / LIPASE / PHOSPHORUS / POTASSIUM / SODIUM / TOTAL BILIRUBIN / TOTAL PROTEIN: tissue Plasma
[1] = 20 mg/kg, 72 h, dose level Low, time 3 day
[2] = 20 mg/kg, 120 h, dose level Low, time 5 day
[3] = 210 mg/kg, 72 h, dose level High, time 3 day
[4] = 210 mg/kg, 120 h, dose level High, time 5 day

## CN[C@H]1CC[C@@H](c2ccc(Cl)c(Cl)c2)c2ccccc21 [SERTRALINE]
[1]
  ABSOLUTE BASOPHIL: 0 CELLS/uL
  ABSOLUTE EOSINOPHIL: 28.33 CELLS/uL
  ABSOLUTE LYMPHOCYTE: 10624.33 CELLS/uL
  ABSOLUTE MONOCYTE: 86.67 CELLS/uL
  ABSOLUTE SEGMENTED NEUTROPHIL: 1294 CELLS/uL
  BASOPHIL: 0%
  EOSINOPHIL: 0.33%
  ERYTHROCYTE COUNT: 5.85 x10E6/uL
  HEMATOCRIT: 36.57%
  HEMOGLOBIN: 14.27 G/DL
  LEUKOCYTE COUNT: 12.03 x10E3/uL
  LYMPHOCYTE: 87.67%
  MEAN CORPUSCULAR HEMOGLOBIN: 24.37 pg
  MEAN CORPUSCULAR HEMOGLOBIN CONCENTRATION: 39.03 G/DL
  MEAN CORPUSCULAR VOLUME: 62.47 fL
  MONOCYTE: 0.67%
  NEUTROPHIL: 11.33%
  NUCLEATED RED BLOOD CELLS: 0 /100WBC
  PLATELET COUNT: 1161.67 x10E3/uL
  ALANINE AMINOTRANSFERASE: 70.33 u/L
  ALBUMIN: 4.23 G/DL
  ALKALINE PHOSPHATASE: 384.33 u/L
  ASPARTATE AMINOTRANSFERASE: 83.33 u/L
  BLOOD UREA NITROGEN: 14 mg/dL
  CARBON DIOXIDE: 29.67 mmol/L
  CHLORIDE: 103 MEQ/L
  CHOLESTEROL: 79 mg/dL
  CREATINE PHOSPHOKINASE: 163 u/L
  CREATININE: 0.23 mg/dL
  GLUCOSE: 158 mg/dL
  LACTATE DEHYDROGENASE: 155 u/L
  LIPASE: 11 u/L
  PHOSPHORUS: 12.33 mg/dL
  POTASSIUM: 6.97 MEQ/L
  SODIUM: 147.8 MEQ/L
  TOTAL BILIRUBIN: 0.17 mg/dL
  TOTAL PROTEIN: 5.57 G/DL
[2]
  ABSOLUTE BASOPHIL: 0 CELLS/uL
  ABSOLUTE EOSINOPHIL: 46.67 CELLS/uL
  ABSOLUTE LYMPHOCYTE: 12898.33 CELLS/uL
  ABSOLUTE MONOCYTE: 0 CELLS/uL
  ABSOLUTE SEGMENTED NEUTROPHIL: 955 CELLS/uL
  BASOPHIL: 0%
  EOSINOPHIL: 0.33%
  ERYTHROCYTE COUNT: 5.71 x10E6/uL
  HEMATOCRIT: 34.57%
  HEMOGLOBIN: 13.57 G/DL
  LEUKOCYTE COUNT: 13.9 x10E3/uL
  LYMPHOCYTE: 92.33%
  MEAN CORPUSCULAR HEMOGLOBIN: 23.83 pg
  MEAN CORPUSCULAR HEMOGLOBIN CONCENTRATION: 39.27 G/DL
  MEAN CORPUSCULAR VOLUME: 60.73 fL
  MONOCYTE: 0%
  NEUTROPHIL: 7.33%
  NUCLEATED RED BLOOD CELLS: 0 /100WBC
  PLATELET COUNT: 913 x10E3/uL
  ALANINE AMINOTRANSFERASE: 60.33 u/L
  ALBUMIN: 4.27 G/DL
  ALKALINE PHOSPHATASE: 427 u/L
  ASPARTATE AMINOTRANSFERASE: 85 u/L
  BLOOD UREA NITROGEN: 13.67 mg/dL
  CARBON DIOXIDE: 25.33 mmol/L
  CHLORIDE: 103.33 MEQ/L
  CHOLESTEROL: 77.67 mg/dL
  CREATINE PHOSPHOKINASE: 211 u/L
  CREATININE: 0.18 mg/dL
  GLUCOSE: 164.33 mg/dL
  LACTATE DEHYDROGENASE: 121.33 u/L
  LIPASE: 10.33 u/L
  PHOSPHORUS: 12.77 mg/dL
  POTASSIUM: 7.01 MEQ/L
  SODIUM: 147.5 MEQ/L
  TOTAL BILIRUBIN: 0.2 mg/dL
  TOTAL PROTEIN: 5.9 G/DL
[3]
  ABSOLUTE BASOPHIL: 0 CELLS/uL
  ABSOLUTE EOSINOPHIL: 0 CELLS/uL
  ABSOLUTE LYMPHOCYTE: 11258 CELLS/uL
  ABSOLUTE MONOCYTE: 82.33 CELLS/uL
  ABSOLUTE SEGMENTED NEUTROPHIL: 1226.33 CELLS/uL
  BASOPHIL: 0%
  EOSINOPHIL: 0%
  ERYTHROCYTE COUNT: 6.22 x10E6/uL
  HEMATOCRIT: 39.43%
  HEMOGLOBIN: 15.5 G/DL
  LEUKOCYTE COUNT: 12.57 x10E3/uL
  LYMPHOCYTE: 89.67%
  MEAN CORPUSCULAR HEMOGLOBIN: 24.93 pg
  MEAN CORPUSCULAR HEMOGLOBIN CONCENTRATION: 39.33 G/DL
  MEAN CORPUSCULAR VOLUME: 63.33 fL
  MONOCYTE: 0.67%
  NEUTROPHIL: 9.67%
  NUCLEATED RED BLOOD CELLS: 0 /100WBC
  PLATELET COUNT: 1225 x10E3/uL
  ALANINE AMINOTRANSFERASE: 53.67 u/L
  ALBUMIN: 4.33 G/DL
  ALKALINE PHOSPHATASE: 460.67 u/L
  ASPARTATE AMINOTRANSFERASE: 112 u/L
  BLOOD UREA NITROGEN: 16 mg/dL
  CARBON DIOXIDE: 28.33 mmol/L
  CHLORIDE: 101.33 MEQ/L
  CHOLESTEROL: 55.33 mg/dL
  CREATINE PHOSPHOKINASE: 286.67 u/L
  CREATININE: 0.22 mg/dL
  GLUCOSE: 117.33 mg/dL
  LACTATE DEHYDROGENASE: 163.33 u/L
  LIPASE: 10.33 u/L
  PHOSPHORUS: 11.53 mg/dL
  POTASSIUM: 6.21 MEQ/L
  SODIUM: 146.43 MEQ/L
  TOTAL BILIRUBIN: 0.1 mg/dL
  TOTAL PROTEIN: 5.97 G/DL
[4]
  ABSOLUTE BASOPHIL: 0 CELLS/uL
  ABSOLUTE EOSINOPHIL: 207 CELLS/uL
  ABSOLUTE LYMPHOCYTE: 18574.33 CELLS/uL
  ABSOLUTE MONOCYTE: 70.33 CELLS/uL
  ABSOLUTE SEGMENTED NEUTROPHIL: 1848.33 CELLS/uL
  BASOPHIL: 0%
  EOSINOPHIL: 1%
  ERYTHROCYTE COUNT: 6.11 x10E6/uL
  HEMATOCRIT: 37.3%
  HEMOGLOBIN: 14.97 G/DL
  LEUKOCYTE COUNT: 20.7 x10E3/uL
  LYMPHOCYTE: 89.67%
  MEAN CORPUSCULAR HEMOGLOBIN: 24.53 pg
  MEAN CORPUSCULAR HEMOGLOBIN CONCENTRATION: 40.13 G/DL
  MEAN CORPUSCULAR VOLUME: 61.1 fL
  MONOCYTE: 0.33%
  NEUTROPHIL: 9%
  NUCLEATED RED BLOOD CELLS: 0 /100WBC
  PLATELET COUNT: 1278.33 x10E3/uL
  ALANINE AMINOTRANSFERASE: 67 u/L
  ALBUMIN: 4.07 G/DL
  ALKALINE PHOSPHATASE: 368.33 u/L
  ASPARTATE AMINOTRANSFERASE: 101.67 u/L
  BLOOD UREA NITROGEN: 18 mg/dL
  CARBON DIOXIDE: 26 mmol/L
  CHLORIDE: 102.67 MEQ/L
  CHOLESTEROL: 74 mg/dL
  CREATINE PHOSPHOKINASE: 255.33 u/L
  CREATININE: 0.23 mg/dL
  GLUCOSE: 153 mg/dL
  LACTATE DEHYDROGENASE: 287.33 u/L
  LIPASE: 10 u/L
  PHOSPHORUS: 12.3 mg/dL
  POTASSIUM: 6.87 MEQ/L
  SODIUM: 146.47 MEQ/L
  TOTAL BILIRUBIN: 0.13 mg/dL
  TOTAL PROTEIN: 5.9 G/DL
